Experimental data published in PubChem BioAssay (NCI).
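Compound exposure: 48 hours, 5 concentrations, 96-well plates. GI50: concentration for 50% inhibition of growth. Definition used: TGI = concentration required for complete inhibition of growth.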

Assays:
Test in all cases: inhibition of tumour cell growth, NCI panel, 48 h
HL-60(TB) leukemia = tested on: HL-60(TB) leukemia
COLO 205 colon = tested on: COLO 205 colon
UACC-62 melanoma = tested on: UACC-62 melanoma
OVCAR-4 ovarian = tested on: OVCAR-4 ovarian
MOLT-4 leukemia = tested on: MOLT-4 leukemia
SK-OV-3 ovarian = tested on: SK-OV-3 ovarian
HCT-116 colon = tested on: HCT-116 colon
HT29 colon = tested on: HT29 colon
NCI-H226 lung = tested on: NCI-H226 lung
M14 melanoma = tested on: M14 melanoma
HOP-62 NSCLC = tested on: HOP-62 NSCLC
HCC-2998 colon = tested on: HCC-2998 colon
A549 NSCLC = tested on: A549 NSCLC
786-0 renal = tested on: 786-0 renal
SF-268 CNS = tested on: SF-268 CNS
RPMI-8226 leukemia = tested on: RPMI-8226 leukemia
KM12 colon = tested on: KM12 colon
RXF 393 renal = tested on: RXF 393 renal
SN12C renal = tested on: SN12C renal
LOX IMVI melanoma = tested on: LOX IMVI melanoma
HOP-92 NSCLC = tested on: HOP-92 NSCLC
SW-620 colon = tested on: SW-620 colon
BT-549 breast = tested on: BT-549 breast
SF-539 CNS = tested on: SF-539 CNS
SK-MEL-5 melanoma = tested on: SK-MEL-5 melanoma
K-562 leukemia = tested on: K-562 leukemia
HS 578T breast = tested on: HS 578T breast
U251 CNS = tested on: U251 CNS
NCI-H460 lung = tested on: NCI-H460 lung
DU-145 prostate = tested on: DU-145 prostate
IGROV1 ovarian = tested on: IGROV1 ovarian
A498 renal = tested on: A498 renal
NCI-H522 lung = tested on: NCI-H522 lung
OVCAR-8 ovarian = tested on: OVCAR-8 ovarian
SNB-75 CNS = tested on: SNB-75 CNS
EKVX NSCLC = tested on: EKVX NSCLC
SK-MEL-28 melanoma = tested on: SK-MEL-28 melanoma
MCF7 breast = tested on: MCF7 breast
SK-MEL-2 melanoma = tested on: SK-MEL-2 melanoma
UO-31 renal = tested on: UO-31 renal
NCI/ADR-RES ovarian = tested on: NCI/ADR-RES ovarian
SR leukemia = tested on: SR leukemia
SF-295 CNS = tested on: SF-295 CNS
T-47D breast = tested on: T-47D breast
SNB-19 CNS = tested on: SNB-19 CNS
MDA-MB-231 breast = tested on: MDA-MB-231 breast
PC-3 prostate = tested on: PC-3 prostate
OVCAR-5 ovarian = tested on: OVCAR-5 ovarian
TK-10 renal = tested on: TK-10 renal
MDA-MB-435 = tested on: MDA-MB-435
ACHN renal = tested on: ACHN renal
OVCAR-3 ovarian = tested on: OVCAR-3 ovarian
UACC-257 melanoma = tested on: UACC-257 melanoma
HCT-15 colon = tested on: HCT-15 colon
NCI-H23 lung = tested on: NCI-H23 lung
CAKI-1 renal = tested on: CAKI-1 renal

Q: `O=c1cccc(C#CC#C/C=C/CO)o1` was tested. Which GI50 (HL-60(TB) leukemia) did it give?
A: 3.17 µM

Q: What about the TGI (HL-60(TB) leukemia) of the same compound?
A: > 100 µM

Q: What about the GI50 (COLO 205 colon) of the same compound?
A: 2.02 µM

Q: And the TGI (COLO 205 colon)?
A: 3.56 µM

Q: And the GI50 (UACC-62 melanoma)?
A: 1.68 µM

Q: What about the TGI (UACC-62 melanoma) of the same compound?
A: 3.39 µM

Q: And the GI50 (OVCAR-4 ovarian)?
A: 3.1 µM

Q: And the TGI (OVCAR-4 ovarian)?
A: > 100 µM

Q: What about the GI50 (MOLT-4 leukemia) of the same compound?
A: 9.1 µM

Q: And the TGI (MOLT-4 leukemia)?
A: > 100 µM

Q: And the GI50 (SK-OV-3 ovarian)?
A: 10.8 µM

Q: And the TGI (SK-OV-3 ovarian)?
A: 22.8 µM

Q: What about the GI50 (HCT-116 colon) of the same compound?
A: 5.71 µM

Q: What about the TGI (HCT-116 colon) of the same compound?
A: > 100 µM

Q: And the GI50 (HT29 colon)?
A: 3.89 µM

Q: What about the TGI (HT29 colon) of the same compound?
A: > 100 µM

Q: And the GI50 (NCI-H226 lung)?
A: 1.31 µM

Q: What about the TGI (NCI-H226 lung) of the same compound?
A: 7.68 µM

Q: And the GI50 (M14 melanoma)?
A: 4.12 µM

Q: And the GI50 (HOP-62 NSCLC)?
A: 2.08 µM

Q: And the TGI (HOP-62 NSCLC)?
A: 4.14 µM

Q: And the GI50 (HCC-2998 colon)?
A: 2.09 µM

Q: What about the TGI (HCC-2998 colon) of the same compound?
A: 3.52 µM

Q: And the GI50 (A549 NSCLC)?
A: 3.65 µM

Q: And the TGI (A549 NSCLC)?
A: 13.1 µM

Q: What about the GI50 (786-0 renal) of the same compound?
A: 3.72 µM

Q: What about the TGI (786-0 renal) of the same compound?
A: > 27.5 µM

Q: What about the GI50 (SF-268 CNS) of the same compound?
A: 2.44 µM

Q: What about the TGI (SF-268 CNS) of the same compound?
A: 17.1 µM

Q: What about the GI50 (RPMI-8226 leukemia) of the same compound?
A: 2.63 µM

Q: And the TGI (RPMI-8226 leukemia)?
A: > 100 µM

Q: What about the GI50 (KM12 colon) of the same compound?
A: 1.64 µM

Q: What about the TGI (KM12 colon) of the same compound?
A: 4.34 µM

Q: And the GI50 (RXF 393 renal)?
A: 2.38 µM

Q: And the TGI (RXF 393 renal)?
A: 7.03 µM

Q: And the GI50 (SN12C renal)?
A: 1.74 µM

Q: And the TGI (SN12C renal)?
A: 4.19 µM

Q: What about the GI50 (LOX IMVI melanoma) of the same compound?
A: 1.55 µM

Q: And the TGI (LOX IMVI melanoma)?
A: 3.32 µM

Q: And the GI50 (HOP-92 NSCLC)?
A: 2.74 µM

Q: And the TGI (HOP-92 NSCLC)?
A: 5.85 µM

Q: What about the GI50 (SW-620 colon) of the same compound?
A: 3.3 µM

Q: And the TGI (SW-620 colon)?
A: > 24.9 µM

Q: And the GI50 (BT-549 breast)?
A: 2.1 µM

Q: And the TGI (BT-549 breast)?
A: 5.17 µM

Q: And the GI50 (SF-539 CNS)?
A: 3.19 µM

Q: What about the TGI (SF-539 CNS) of the same compound?
A: 8.26 µM

Q: What about the GI50 (SK-MEL-5 melanoma) of the same compound?
A: 2.48 µM

Q: What about the TGI (SK-MEL-5 melanoma) of the same compound?
A: 6.24 µM

Q: What about the GI50 (K-562 leukemia) of the same compound?
A: 4.92 µM

Q: What about the TGI (K-562 leukemia) of the same compound?
A: > 100 µM

Q: What about the GI50 (HS 578T breast) of the same compound?
A: 6.87 µM

Q: What about the TGI (HS 578T breast) of the same compound?
A: 39.9 µM

Q: And the GI50 (U251 CNS)?
A: 1.89 µM

Q: And the TGI (U251 CNS)?
A: 3.84 µM

Q: And the GI50 (NCI-H460 lung)?
A: 2.88 µM

Q: And the GI50 (DU-145 prostate)?
A: 3.4 µM

Q: And the TGI (DU-145 prostate)?
A: 12.4 µM

Q: And the GI50 (IGROV1 ovarian)?
A: 2.82 µM

Q: What about the GI50 (A498 renal) of the same compound?
A: 7.57 µM

Q: What about the TGI (A498 renal) of the same compound?
A: 22.7 µM

Q: And the GI50 (NCI-H522 lung)?
A: 1.45 µM

Q: What about the GI50 (OVCAR-8 ovarian) of the same compound?
A: 2.37 µM

Q: What about the TGI (OVCAR-8 ovarian) of the same compound?
A: 6.62 µM

Q: And the GI50 (SNB-75 CNS)?
A: 17 µM

Q: And the TGI (SNB-75 CNS)?
A: 92.9 µM

Q: And the GI50 (EKVX NSCLC)?
A: 2.77 µM

Q: What about the TGI (EKVX NSCLC) of the same compound?
A: 6.47 µM

Q: And the GI50 (SK-MEL-28 melanoma)?
A: 2.75 µM

Q: What about the TGI (SK-MEL-28 melanoma) of the same compound?
A: 10.9 µM

Q: What about the GI50 (MCF7 breast) of the same compound?
A: 2.23 µM

Q: What about the GI50 (SK-MEL-2 melanoma) of the same compound?
A: 7.52 µM

Q: And the TGI (SK-MEL-2 melanoma)?
A: > 31.3 µM

Q: What about the GI50 (UO-31 renal) of the same compound?
A: 2.6 µM

Q: What about the GI50 (NCI/ADR-RES ovarian) of the same compound?
A: 2.52 µM

Q: What about the GI50 (SR leukemia) of the same compound?
A: > 100 µM

Q: What about the TGI (SR leukemia) of the same compound?
A: > 100 µM

Q: And the GI50 (SF-295 CNS)?
A: 5.84 µM

Q: And the TGI (SF-295 CNS)?
A: 18.8 µM

Q: What about the GI50 (T-47D breast) of the same compound?
A: 2.36 µM

Q: And the TGI (T-47D breast)?
A: 4.46 µM

Q: And the GI50 (SNB-19 CNS)?
A: 3.06 µM

Q: And the TGI (SNB-19 CNS)?
A: 10.7 µM

Q: And the GI50 (MDA-MB-231 breast)?
A: 1.87 µM

Q: And the TGI (MDA-MB-231 breast)?
A: 4.03 µM

Q: And the GI50 (PC-3 prostate)?
A: 2.94 µM

Q: And the TGI (PC-3 prostate)?
A: 11.3 µM

Q: And the GI50 (OVCAR-5 ovarian)?
A: 2.09 µM

Q: What about the TGI (OVCAR-5 ovarian) of the same compound?
A: 4.34 µM

Q: And the GI50 (TK-10 renal)?
A: 2.21 µM

Q: What about the TGI (TK-10 renal) of the same compound?
A: 4.66 µM

Q: And the GI50 (MDA-MB-435)?
A: 1.99 µM

Q: And the TGI (MDA-MB-435)?
A: 4.69 µM

Q: And the GI50 (ACHN renal)?
A: 2.13 µM

Q: And the TGI (ACHN renal)?
A: 4.86 µM

Q: What about the GI50 (OVCAR-3 ovarian) of the same compound?
A: 2.33 µM

Q: And the TGI (OVCAR-3 ovarian)?
A: 6.12 µM

Q: What about the GI50 (UACC-257 melanoma) of the same compound?
A: 2.07 µM

Q: And the TGI (UACC-257 melanoma)?
A: 4.7 µM

Q: What about the GI50 (HCT-15 colon) of the same compound?
A: 1.98 µM

Q: And the TGI (HCT-15 colon)?
A: 5.15 µM

Q: And the GI50 (NCI-H23 lung)?
A: 1.73 µM

Q: And the TGI (NCI-H23 lung)?
A: 3.18 µM

Q: And the GI50 (CAKI-1 renal)?
A: 1.91 µM

Q: And the TGI (CAKI-1 renal)?
A: 3.6 µM
